From patent US20210268070A1, “Use of Immunomodulators to Control Infection and Stimulate Healing in Normal and Diabetic Wounds” (priority 2018, published 2021) come the findings set out here.

One series relates to USA300 MRSA. Briefly: Implant model of infection with USA300 MRSA. Type of series: in vivo. The following applies: C57B mice, 10^6 CFU USA300, implant model, topical LPS or fMLP vs vancomycin 40 mg/kg i.p., 24 h, FIG. 2C. The method, then:
The implant model of infection in C57B mice was used for 10^6 PA103 (FIG. 2A) or 10^6 USA300 MRSA (FIG. 2C). The wound model of infection was used for 10^6 PA103 in C57BL mice (FIG. 2B) or diabetic db/db mice (FIG. 2D). Infection was carried out at the time of surgery by adding bacteria directly to the surgical sites. Immunomodulators, namely, LPS (10 ng or 100 ng), fMLP (10 ng or 100 ng), CCL3 (1 μg) were added topically at the surgical sites at the time of surgery & infection. GM-CSF (10 μg/kg), tobramycin (Tob at 3.5 mg/kg), and vancomycin (40 mg/kg) were added systemically by i.p. injection 1 h before surgical implantation and infection. Infection levels were determined 24 h following infection (N>4 animals/group; NS=not significant, * p<0.01, ** p<0.001, ***p<0.0001 One-way ANOVA).
(15A) C57BL/6 mice received 40 mg/kg prophylaxis (Sys) vancomycin (Vanc) or 3.5 mg/kg tobramycin (Tobra) by i.p. injection. (15A) 1 h after antibiotic administration, 106 CFU of USA300 was added to implant after insertion into facia (Implant Model). (15B) 1 h after antibiotic administration, 10^6CFU of USA300 or 106CFU PA103 (Pa) were added full-thickness wounds in of C57BL/6 (Wound Model). Infection levels at implant surgical site (Tissue & Implant) or a distant site (Spleen), or wound tissues were assessed 24 h following infection. (N>4 animals/group, * p<0.01, ***p<0.0001, One-way ANOVA).
We assessed these immunomodulators for their ability to control wound and/or implant SS's in normal (C57BL/6) or diabetic (db/db) mice. We acknowledge that diabetic individuals are not as immunocompromised as other immunocompromised patient groups. […] All immunomodulators were added locally at the surgical sites at the time of infection, except GM-CSF (10 μg/kg) which was administered systemically by i.p. injection 1 h prior to surgery per its FDA-approved route of delivery. […] CCL3 and GM-CSF are also tested using the implant model of infection. Here, we tested CCL3 and GM-CSF in the wound model of infection in C57B mice.
Implant surgery and wound surgery and surgical site infection are performed according to the following method. On the day of surgery, all mice are anesthetized by an intraperitoneal injection of a ketamine/xylazine mixture (90 mg/kg ketamine+5 mg/kg xylazine for mice). The back of the animals is shaved using an electric shave and scrubbed with alcohol swabs 3 times, a topical antiseptic solution (Hibiclens; chlorhexidine gluconate) is applied to the skin. The surgical procedures are performed with sterile instruments, sterile surgical gloves, and aseptic techniques as follows. For wound surgical procedure, a sterile biopsy punch (5-7 mm diameter) is used to punch through the full thickness of the back skin below the shoulder blades. […]

In another series the test system is leukocytes. The series can be described thus: Leukocyte migration (H&E staining) and activation (MPO ELISA) in normal wound. It counts as in vivo, C57B mice. The following applies: for leukocyte migration and neutrophil activation in a normal wound: compared to PBS, FIGS. 10A-10D. The source says: FIGS. 10A-10D illustrate that immunomodulatory treatment enhances leukocyte migration and neutrophil activation in a normal wound. (10A, 10B—CCL3, 10C—LPS, fMLF, 10D—GM-CSF), N=4; Significance determined as compared to PBS *<0.05, **p<0.01, ***p<0.001.
We next examined the impact of CCL3 topical treatment on leukocyte migration by H&E staining, and on leukocyte activation by myeloperoxidase (MPO) measurements by ELISA. (MPO is primarily used as a marker for neutrophil activation but it can also be expressed to lesser extent in macrophages).
On the technique in general: ELISA stands for enzyme-linked immunosorbent assay.

The test system of series [1] is inflammatory responses (IL-1 β, TNFα). Briefly: Neutrophilia and inflammatory responses in diabetic wounds. Type of series: in vivo, db/db mice. The source says: P. aeruginosa PA103 10^3 N=4; Significance determined as compared to PBS *<0.05, **p<0.01, ***p<0.001.
FIG. 13A illustrates that TLR4 ligand increases antimicrobial defenses in diabetic wounds against P. aeruginosa and FIG. 13B TLR4 ligand stimulates inflammatory responses in diabetic wounds. N=4; Significance determined as compared to PBS *<0.05, **p<0.01, ***p<0.001.
Tissue-Tek O.C.T. (Sakura); Lysing Matrix D (MP Biomedicals); Collagenase (Roche Diagnostics), Hematoxylin and eosin (H&E); DNase 1 (Sigma-Aldrich); Hyluronidase, Streptozotocin (Sigma-Aldrich); Trizol (Invitrogen); CD45 antibody (eBioscience, Inc); Ly6C; Ly6G; CD11b; CD3 (BioLegend); CD68; GAPDH (Sigma-Aldrich). Ly6G and CD68 (Abcam); Primer pairs for GAPDH were from Qiagen. Masson's trichrome stain (Sigma-Aldrich); Picrosirius red (Abcam); Fibronectin (Chemicon International); Insulin slow-release capsules (Linplant; LinShin, Toronto, Canada) CCL3 (R&D Systems) fMLP (Sigma-Aldrich); II-1β ELISA (R&D Systems); TNF-α ELISA (R&D Systems).

Where [2] appears, read: topical CCL3 to C57B wounds, regardless of infection, FIG. 10A, 10B.

`CSCC[C@H](NC=O)C(=O)N[C@@H](CC(C)C)C(=O)N[C@@H](Cc1ccccc1)C(=O)O` [fMLP, N-Formylmethionyl-leucyl-phenylalanine]: the “controlling USA300 MRSA infection, compared with prophylaxis vancomycin” value with USA300 MRSA was “as effective (if not more)”. Besides, in the series with leukocytes, the “leukocyte migration and neutrophil activation in a normal wound” value is “enhances”.
As to lipopolysaccharide [LPS], the “controlling USA300 MRSA infection, compared with prophylaxis vancomycin” value with USA300 MRSA is listed as “as effective (if not more)”. For the same molecule, in the series with leukocytes, the “leukocyte migration and neutrophil activation in a normal wound” value is reported as “enhances”. Moreover, the “inflammatory responses in diabetic wounds” value in series [1] (compared to PBS, FIG. 13B) was “stimulates”.

B1: Chemokine (C-C motif) ligand 3 (protein, listed as Homo sapiens)
chain: MQVSTAALAVLLCTMALCNQFSASLAADTPTACCFSYTSRQIPQNFIADYFETSSQCSKPGVIFLTKRSRQVCADPSEEWVQKYVSDLELSA
notes: class 1 immunomodulator
For B1, the “leukocyte migration and neutrophil activation in a normal wound” value in the series with leukocytes was “enhances”. Moreover, in the series with leukocytes (setting [2]), the “leukocytes' activation in the wound (myeloperoxidase, MPO, by ELISA)” value is recorded as “significant increases” and the “leukocytes' migration in the wound (H&E staining)” value is recorded as “significant increases”. Further, in series [1] (P. aeruginosa PA103 10^3, FIG. 12A), the “neutrophilia in infected diabetic wounds” value is “does not lead to”. Also, the “persistent inflammatory responses (IL-1 β, TNFα) in infected diabetic wounds” value in series [1] (P. aeruginosa PA103 10^3, FIG. 12B, 12C) is on record as “does not lead to”.
